Test results: patent US20080058213A1, “Benzoxazole Compounds” (priority 2004, published 2008)

Tests used:
Assay type in all cases: in vivo
[1] = tested on: southern crabgrass (Digitaria ciliaris); assay: Soil treatment test for upland field (Test Example 2): southern crabgrass; conditions: soil treatment before germination, examined after 3 weeks
Excerpt: (§1) Evaluation of the herbicidal effect is shown in the following six grades, by comparing the condition of untreated control and growth inhibition (%): • 0: 0%-less than 20% • 1: 20%-less than 40% • 2: 40%-less than 60% • 3: 60%-less than 80% • 4: 80%-less than 100% • 5: 100%.
(§2) Upland field soil was filled in 1/3,000 are pots, seeded with southern crabgrass (Digitaria ciliaris), common lambsquaters (Chenopodium album), slender amaranth (Amaranthus viridis), common purslane (Portulaca oleracea), velvetleaf (Abutilon theophrasti), wheat, corn and soybean. The seeds were covered up with the soil.
(§3) Wettable powders containing the object compounds (1) as identified in Table 1, which were formulated following Preparation Example 2, were diluted with adequate amount of water to secure the prescribed dose of the active ingredient, and uniformly sprayed onto the surface soil layer after the seeding and before germination of the weeds, at an application water of 15 liters per are.
(§4) After placing the test pots in a glasshouse which was kept at an average temperature of 25° C. for 3 weeks, the herbicidal effect was examined.
(§5) Evaluations of the herbicidal effect and phytotoxicity were made in the manner similar to those in the above Test Example 1.

[2] = tested on: common lambsquaters (Chenopodium album); assay: Soil treatment test for upland field (Test Example 2): common lambsquaters; conditions: soil treatment before germination, examined after 3 weeks
Excerpt: as §1, §2, §3, §4, §5

[3] = tested on: slender amaranth (Amaranthus viridis); assay: Soil treatment test for upland field (Test Example 2): slender amaranth; conditions: soil treatment before germination, examined after 3 weeks
Excerpt: as §1, §2, §3, §4, §5

[4] = tested on: common purslane (Portulaca oleracea); assay: Soil treatment test for upland field (Test Example 2): common purslane; conditions: soil treatment before germination, examined after 3 weeks
Excerpt: as §1, §2, §3, §4, §5

[5] = tested on: velvetleaf (Abutilon theophrasti); assay: Soil treatment test for upland field (Test Example 2): velvetleaf; conditions: soil treatment before germination, examined after 3 weeks
Excerpt: as §1, §2, §3, §4, §5

[6] = tested on: wheat; assay: Soil treatment test for upland field (Test Example 2): phytotoxicity to wheat; conditions: soil treatment before germination, examined after 3 weeks
Excerpt: (§6) Evaluation of phytotoxicity is shown in the following six grades, as compared with the condition of untreated control: • 0: normal growth • 1: little damaged • 2: low damaged • 3: medium damaged • 4: serious damaged • 5: complete killed.
as §2, §4

[7] = tested on: corn; assay: Soil treatment test for upland field (Test Example 2): phytotoxicity to corn; conditions: soil treatment before germination, examined after 3 weeks
Excerpt: as §6, §2, §4

[8] = tested on: soybean; assay: Soil treatment test for upland field (Test Example 2): phytotoxicity to soybean; conditions: soil treatment before germination, examined after 3 weeks
Excerpt: as §6, §2, §4

[9] = tested on: southern crabgrass; assay: Foliage treatment test for upland field (Test Example 3): southern crabgrass; conditions: foliage treatment at 1.0-2.0 leaf stage of southern crabgrass, examined after 3 weeks
Excerpt: as §1
(§7) Compost mixed soil was filled in 1/3,000 are pots, seeded with southern crabgrass, common lambsquaters, slender amaranth, common purslane, velvetleaf, wheat, corn and soybean. The seeds were covered up with the soil and cultured in a glasshouse kept at 25° C. on the average.
(§8) Wettable powders containing the object compounds (1) as identified in Table 1, which were formulated following Preparation Example 2, were diluted with water to the prescribed dose of the active ingredient, and uniformly sprayed onto the weeds at 1.0-2.0 leaf stage of the southern crabgrass at an application water of 15 liters per are.
(§9) After placing the test pots in a grasshouse kept at 25° C. on the average for 3 weeks, the herbicidal effect was examined.
(§10) Evaluation of the herbicidal effect was conducted in the similar manner to Test Example 1.

[10] = tested on: common lambsquaters; assay: Foliage treatment test for upland field (Test Example 3): common lambsquaters; conditions: foliage treatment at 1.0-2.0 leaf stage of southern crabgrass, examined after 3 weeks
Excerpt: as §1, §7, §8, §9, §10

[11] = tested on: slender amaranth; assay: Foliage treatment test for upland field (Test Example 3): slender amaranth; conditions: foliage treatment at 1.0-2.0 leaf stage of southern crabgrass, examined after 3 weeks
Excerpt: as §1, §7, §8, §9, §10

[12] = tested on: common purslane; assay: Foliage treatment test for upland field (Test Example 3): common purslane; conditions: foliage treatment at 1.0-2.0 leaf stage of southern crabgrass, examined after 3 weeks
Excerpt: as §1, §7, §8, §9, §10

[13] = tested on: velvetleaf; assay: Foliage treatment test for upland field (Test Example 3): velvetleaf; conditions: foliage treatment at 1.0-2.0 leaf stage of southern crabgrass, examined after 3 weeks
Excerpt: as §1, §7, §8, §9, §10

[14] = tested on: wheat; assay: Foliage treatment test for upland field (Test Example 3): phytotoxicity to wheat; conditions: foliage treatment at 1.0-2.0 leaf stage of southern crabgrass, examined after 3 weeks
Procedure: as §6, §7, §9

[15] = tested on: corn; assay: Foliage treatment test for upland field (Test Example 3): phytotoxicity to corn; conditions: foliage treatment at 1.0-2.0 leaf stage of southern crabgrass, examined after 3 weeks
Procedure: as §6, §7, §9

[16] = tested on: soybean; assay: Foliage treatment test for upland field (Test Example 3): phytotoxicity to soybean; conditions: foliage treatment at 1.0-2.0 leaf stage of southern crabgrass, examined after 3 weeks
Procedure: as §6, §7, §9

[17] = tested on: barnyard grass (Echinochloa crusgalli); assay: Weed control test for paddy field (Test Example 1): barnyard grass; conditions: paddy pots, treated at 1.0 leaf stage of barnyard grass, examined after 3 weeks
Excerpt: (§11) Paddy field soil was filled in 1/10,000 are pots, kneaded with adequate amounts of water and chemical fertilizer, seeded with barnyard grass (Echinochloa crusgalli), Monochoria (Monochoria vaginalis), Japanese bulrush (Scirpus juncoides) and flat sedge (Cyperus serotinus), and further transplanted with 2.0 leaf stage of rice plant. The pots were maintained under the water-filled condition to a depth of 3 cm.
(§12) Wettable powders containing the compounds (1) as identified in Table 1, which were formulated following Production Example 2, were diluted with adequate amount of water and applied to the pots dropwise with pippet at a prescribed dose of the active ingredients per are, at 1.0 leaf stage of the barnyard grass.
(§13) After placing the pots in a glasshouse which was controlled at an average temperature of 25° C. for 3 weeks, herbicidal effect was examined.
as §1

[18] = tested on: Monochoria (Monochoria vaginalis); assay: Weed control test for paddy field (Test Example 1): Monochoria; conditions: paddy pots, treated at 1.0 leaf stage of barnyard grass, examined after 3 weeks
Excerpt: as §11, §12, §13, §1

[19] = tested on: Japanese bulrush (Scirpus juncoides); assay: Weed control test for paddy field (Test Example 1): Japanese bulrush; conditions: paddy pots, treated at 1.0 leaf stage of barnyard grass, examined after 3 weeks
Excerpt: as §11, §12, §13, §1

[20] = tested on: flat sedge (Cyperus serotinus); assay: Weed control test for paddy field (Test Example 1): flat sedge; conditions: paddy pots, treated at 1.0 leaf stage of barnyard grass, examined after 3 weeks
Excerpt: as §11, §12, §13, §1

[21] = tested on: rice plant; assay: Weed control test for paddy field (Test Example 1): phytotoxicity to rice plant; conditions: paddy pots, treated at 1.0 leaf stage of barnyard grass, examined after 3 weeks
Excerpt: as §11, §12, §13, §6

SMILES	Herbicidal Effect southern crabgrass ([9]; dose 2.5 g ai/a)	Herbicidal Effect southern crabgrass ([9]; dose 5 g ai/a)	Herbicidal Effect Common lambsquatters ([10]; dose 2.5 g ai/a)	Herbicidal Effect Common lambsquatters ([10]; dose 5 g ai/a)	Herbicidal Effect slender amaranth ([11]; dose 2.5 g ai/a)	Herbicidal Effect slender amaranth ([11]; dose 5 g ai/a)	Herbicidal Effect common purslane ([12]; dose 2.5 g ai/a)	Herbicidal Effect common purslane ([12]; dose 5 g ai/a)	Herbicidal Effect velvetleaf ([13]; dose 2.5 g ai/a)	Herbicidal Effect velvetleaf ([13]; dose 5 g ai/a)	Phytotoxicity wheat ([14]; dose 2.5 g ai/a)	Phytotoxicity wheat ([14]; dose 5 g ai/a)	Phytotoxicity corn ([15]; dose 2.5 g ai/a)	Phytotoxicity corn ([15]; dose 5 g ai/a)	Phytotoxicity soybean ([16]; dose 2.5 g ai/a)	Phytotoxicity soybean ([16]; dose 5 g ai/a)	Herbicidal Effect Barnyard grass ([17]; dose 2.5 g ai/a)	Herbicidal Effect Barnyard grass ([17]; dose 5 g ai/a)	Herbicidal Effect Monochoria vaginalis ([18]; dose 2.5 g ai/a)	Herbicidal Effect Monochoria vaginalis ([18]; dose 5 g ai/a)	further results
FC(F)C(F)(F)COCC(=Cc1cccc(C(F)(F)F)c1)c1nc2cc(C(F)(F)F)ccc2o1 [Compound 87]	4 (80%-less than 100%)	5 (100%)	5 (100%)	5 (100%)	5 (100%)	5 (100%)	5 (100%)	5 (100%)	4 (80%-less than 100%)	5 (100%)	0	1	0	1	1	1	–	–	–	–	Herbicidal Effect southern crabgrass ([1]; dose 2.5 g ai/a): 4 (80%-less than 100%); Herbicidal Effect southern crabgrass ([1]; dose 5 g ai/a): 5 (100%); Herbicidal Effect common lambsquaters ([2]; dose 2.5 g ai/a): 5 (100%); Herbicidal Effect common lambsquaters ([2]; dose 5 g ai/a): 5 (100%); Herbicidal Effect slender amaranth ([3]; dose 2.5 g ai/a): 5 (100%); Herbicidal Effect slender amaranth ([3]; dose 5 g ai/a): 5 (100%); Herbicidal Effect common purslane ([4]; dose 2.5 g ai/a): 5 (100%); Herbicidal Effect common purslane ([4]; dose 5 g ai/a): 5 (100%); Herbicidal Effect velvetleaf ([5]; dose 2.5 g ai/a): 4 (80%-less than 100%); Herbicidal Effect velvetleaf ([5]; dose 5 g ai/a): 5 (100%); Phytotoxicity wheat ([6]; dose 2.5 g ai/a): 0; Phytotoxicity wheat ([6]; dose 5 g ai/a): 1; Phytotoxicity corn ([7]; dose 2.5 g ai/a): 0; Phytotoxicity corn ([7]; dose 5 g ai/a): 0; Phytotoxicity soybean ([8]; dose 2.5 g ai/a): 0; Phytotoxicity soybean ([8]; dose 5 g ai/a): 1
CCOCC(=Cc1cccc(C(F)(F)F)c1)c1nc2cc(F)cc(F)c2o1 [Compound 112]	–	–	–	–	–	–	–	–	–	–	–	–	–	–	–	–	4 (80%-less than 100%)	5 (100%)	5 (100%)	5 (100%)	Herbicidal Effect Japanese bulrush ([19]; dose 2.5 g ai/a): 4 (80%-less than 100%); Herbicidal Effect Japanese bulrush ([19]; dose 5 g ai/a): 5 (100%); Herbicidal Effect Flat sedge ([20]; dose 2.5 g ai/a): 3 (60%-less than 80%); Herbicidal Effect Flat sedge ([20]; dose 5 g ai/a): 4 (80%-less than 100%); Phytotoxicity Rice plant ([21]; dose 2.5 g ai/a): 0; Phytotoxicity Rice plant ([21]; dose 5 g ai/a): 1
COCC(=Cc1cccc(C(F)(F)F)c1)c1nc2cc(C(C)(C)C)ccc2o1 [Compound 151]	4 (80%-less than 100%)	5 (100%)	5 (100%)	5 (100%)	5 (100%)	5 (100%)	5 (100%)	5 (100%)	3 (60%-less than 80%)	4 (80%-less than 100%)	0	0	0	0	0	0	4 (80%-less than 100%)	5 (100%)	5 (100%)	5 (100%)	Herbicidal Effect Japanese bulrush ([19]; dose 2.5 g ai/a): 3 (60%-less than 80%); Herbicidal Effect Japanese bulrush ([19]; dose 5 g ai/a): 5 (100%); Herbicidal Effect Flat sedge ([20]; dose 2.5 g ai/a): 3 (60%-less than 80%); Herbicidal Effect Flat sedge ([20]; dose 5 g ai/a): 4 (80%-less than 100%); Phytotoxicity Rice plant ([21]; dose 2.5 g ai/a): 0; Phytotoxicity Rice plant ([21]; dose 5 g ai/a): 0
